Values after ≈ are worked out from the molar mass of the structure shown.
What was measured:
T. evansi (Tev) Tansui = experiment: Anti-trypanosomal assay (CellTiter-Glo), Tev Tansui; format: cell-based; details: mean ± SD
Method: (§1) Six trypanosome species namely T. b. brucei (Tbb) GuTat3.1, T. b. rhodesiense (Tbr) IL1501, T. b. gambiense (Tbg) IL1922, T. evansi (Tev) Tansui, T. equiperdum (Teq) IVM-t1 and T. congolense (Tc) IL3000, were cultivated using HMI-9 medium and used in the study. […]
(§2) The IC50 of Neohesperidin dihydrochalcone against six trypanosome species was determined using serial dilution in a 96-well plate (Optical bottom plate, ThermoFisher SCIENTIFIC, MA, USA). After three days, […] of CellTiter-Glo Luminescent cell viability reagent (Promega Corporation, WI, USA) was aliquoted into each well and luminosity was measured with a GloMax plate reader (Promega Corporation, WI, USA).

[1] = test system: T. b. rhodesiense (Tbr) IL1501; experiment: Anti-trypanosomal assay (CellTiter-Glo), TbrIL1501; format: cell-based; details: mean ± SD
Method: as §1, §2

[2] = test system: T. b. gambiense (Tbg) IL1922; experiment: Anti-trypanosomal assay (CellTiter-Glo), TbgIL1922; format: cell-based; details: mean ± SD
Method: as §1, §2

Trypanosoma = details: previously tested; cited from earlier work
[3] = test system: T. equiperdum (Teq) IVM-t1; experiment: Anti-trypanosomal assay (CellTiter-Glo), Teq IVM-t1; format: cell-based
Method: as §1, §2

[4] = test system: T. b. brucei (Tbb) GuTat3.1; experiment: Anti-trypanosomal assay (CellTiter-Glo), TbbGUTat3.1; format: cell-based; details: mean ± SD
Method: as §1, §2

[5] = test system: T. congolense (Tc) IL3000; experiment: Anti-trypanosomal assay (CellTiter-Glo), TcIL3000; format: cell-based; details: mean ± SD
Method: Six trypanosome species namely T. b. brucei (Tbb) GuTat3.1, T. b. rhodesiense (Tbr) IL1501, T. b. gambiense (Tbg) IL1922, T. evansi (Tev) Tansui, T. equiperdum (Teq) IVM-t1 and T. congolense (Tc) IL3000, were cultivated using HMI-9 medium and used in the study. The trypanocidal activity of hesperidin and neohesperidin dihydrochalcone, shown below, was assessed at 25 μg/ml or […].
as §2

six trypanosome species = experiment: Anti-trypanosomal assay, statements over all six species; format: cell-based, Trypanosoma; details: for antitrypanosomal activity: assayed at 0.25 or 25 μg/ml; for trypanocidal activity (words): at about 25 μg/ml
Method: as §1, §2

Toxoplasma gondii = details: compared to other flavonoids and conventional medicines; cited from earlier work
[6] = Trypanosoma equiperdum, read-out: Inhibition rate

**Q.** For COc1ccc([C@@H]2CC(=O)c3c(O)cc(O[C@@H]4O[C@H](CO[C@@H]5O[C@@H](C)[C@H](O)[C@@H](O)[C@H]5O)[C@@H](O)[C@H](O)[C@H]4O)cc3O2)cc1O [Hesperidin, hesperidin, reference compound], which inhibition at 0.25 µg/mL (T. evansi (Tev) Tansui; 0.25 μg/ml, read-out: Inhibition rate) is on record?
**A.** The inhibition at 0.25 µg/mL was 7.67 ± 5.9%.

**Q.** What about the inhibition at 25 µg/mL (T. evansi (Tev) Tansui; 25 μg/ml, read-out: Inhibition rate) of the same compound?
**A.** Its inhibition at 25 µg/mL is 0%.

**Q.** What about the inhibition at 0.25 µg/mL ([1]; Trypanosoma brucei, RHODESIENSE, TbrIL1501, 0.25 μg/ml, read-out: Inhibition rate) of the same compound?
**A.** Its inhibition at 0.25 µg/mL is 7.17 ± 3.1%.

**Q.** And the inhibition at 25 µg/mL ([1]; Trypanosoma brucei, RHODESIENSE, TbrIL1501, 25 μg/ml, read-out: Inhibition rate)?
**A.** The inhibition at 25 µg/mL was 0%.

**Q.** What about the inhibition at 0.25 µg/mL ([2]; Trypanosoma brucei, GAMBIENSE, TbgIL1922, 0.25 μg/ml, read-out: Inhibition rate) of the same compound?
**A.** Its inhibition at 0.25 µg/mL is 1.56 ± 2.2%.

**Q.** And the inhibition at 25 µg/mL ([2]; Trypanosoma brucei, GAMBIENSE, TbgIL1922, 25 μg/ml, read-out: Inhibition rate)?
**A.** Its inhibition at 25 µg/mL is 0%.

**Q.** And the “trypanocidal action” value (Trypanosoma)?
**A.** Its value is “did not previously show any trypanocidal action”.

**Q.** And the inhibition at 0.25 µg/mL [3, 6]?
**A.** The inhibition at 0.25 µg/mL was 0.015 ± 0.022%.

**Q.** What about the inhibition at 25 µg/mL [3, 6] of the same compound?
**A.** The inhibition at 25 µg/mL was 0.97 ± 1.37%.

**Q.** And the inhibition at 0.25 µg/mL ([4]; Trypanosoma brucei, TbbGUTat3.1, 0.25 μg/ml, read-out: Inhibition rate)?
**A.** Its inhibition at 0.25 µg/mL is 0%.

**Q.** What about the inhibition at 25 µg/mL ([4]; Trypanosoma brucei, TbbGUTat3.1, 25 μg/ml, read-out: Inhibition rate) of the same compound?
**A.** The inhibition at 25 µg/mL was 1.05 ± 0.99%.

**Q.** What about the inhibition at 0.25 µg/mL ([5]; Trypanosoma congolense, TcIL3000, 0.25 μg/ml, read-out: Inhibition rate) of the same compound?
**A.** Its inhibition at 0.25 µg/mL is 0%.

**Q.** And the inhibition at 25 µg/mL ([5]; Trypanosoma congolense, TcIL3000, 25 μg/ml, read-out: Inhibition rate)?
**A.** The inhibition at 25 µg/mL was 0%.

**Q.** What about the “antitrypanosomal activity” value (six trypanosome species) of the same compound?
**A.** The value was “inadequate antitrypanosomal activity”.

**Q.** And the “trypanocidal activity (words)” value (six trypanosome species)?
**A.** Its value is “no activity”.

**Q.** For COc1ccc(CCC(=O)c2c(O)cc(O[C@@H]3O[C@H](CO)[C@@H](O)[C@H](O)[C@H]3O[C@@H]3O[C@@H](C)[C@H](O)[C@@H](O)[C@H]3O)cc2O)cc1O [Neohesperidin dihydrochalcone, neohesperidin dihydrochalcone], which Inhibition rate (T. evansi (Tev) Tansui; 0.25 μg/ml) is on record?
**A.** The Inhibition rate was 3.59 ± 5.5%.

**Q.** And the Inhibition rate (T. evansi (Tev) Tansui; 25 μg/ml)?
**A.** The Inhibition rate was 99.18 ± 0.22%.

**Q.** And the Inhibition rate (T. evansi (Tev) Tansui; 25 μg/ml, listed as neohesperidin dihydrochalcone)?
**A.** The Inhibition rate was “more than 99%”.

**Q.** What about the IC50 (T. evansi (Tev) Tansui; three days) of the same compound?
**A.** The IC50 was 12.69 ± 0.98 µg/mL (≈ 20.7 µM).

**Q.** What about the Inhibition rate ([1]; TbrIL1501, 0.25 μg/ml) of the same compound?
**A.** Its Inhibition rate is 3.95 ± 5.59%.

**Q.** And the Inhibition rate ([1]; TbrIL1501, 25 μg/ml)?
**A.** Its Inhibition rate is 99.63 ± 0.25%.

**Q.** And the Inhibition rate ([1]; TbrIL1501, 25 μg/ml, listed as neohesperidin dihydrochalcone)?
**A.** Its Inhibition rate is “more than 99%”.

**Q.** What about the IC50 ([1]; TbrIL1501, three days) of the same compound?
**A.** The IC50 was 9.47 ± 2.73 µg/mL (≈ 15.5 µM).

**Q.** And the Inhibition rate ([2]; TbgIL1922, 0.25 μg/ml)?
**A.** The Inhibition rate was 1.09 ± 0.64%.

**Q.** What about the Inhibition rate ([2]; TbgIL1922, 25 μg/ml) of the same compound?
**A.** The Inhibition rate was 99.63 ± 0.28%.

**Q.** And the Inhibition rate ([2]; TbgIL1922, 25 μg/ml, listed as neohesperidin dihydrochalcone)?
**A.** The Inhibition rate was “more than 99%”.

**Q.** And the IC50 ([2]; TbgIL1922, three days)?
**A.** The IC50 was 8.88 ± 3.84 µg/mL (≈ 14.5 µM).

**Q.** What about the Inhibition rate ([3]; Teq IVM-t1, 0.25 μg/ml, mean ± SD) of the same compound?
**A.** The Inhibition rate was 0.59 ± 0.84%.

**Q.** What about the Inhibition rate ([3]; Teq IVM-t1, 25 μg/ml, mean ± SD) of the same compound?
**A.** The Inhibition rate was 98.8 ± 0.17%.

**Q.** And the Inhibition rate ([3]; Teq IVM-t1, 25 μg/ml, mean ± SD, listed as neohesperidin dihydrochalcone)?
**A.** Its Inhibition rate is “more than 99%”.

**Q.** And the IC50 ([3]; Teq IVM-t1, three days, mean ± SD)?
**A.** The IC50 was 11.38 ± 3.93 µg/mL (≈ 18.6 µM).

**Q.** And the Inhibition rate ([4]; TbbGUTat3.1, 0.25 μg/ml)?
**A.** Its Inhibition rate is 2.89 ± 1.69%.

**Q.** And the Inhibition rate ([4]; TbbGUTat3.1, 25 μg/ml)?
**A.** The Inhibition rate was 99.65 ± 0.2%.

**Q.** What about the Inhibition rate ([4]; TbbGUTat3.1, 25 μg/ml, listed as neohesperidin dihydrochalcone) of the same compound?
**A.** The Inhibition rate was “more than 99%”.

**Q.** What about the IC50 ([4]; TbbGUTat3.1, three days) of the same compound?
**A.** The IC50 was 11.97 ± 0.026 µg/mL (≈ 19.5 µM).

**Q.** What about the Inhibition rate ([5]; TcIL3000, 0.25 μg/ml) of the same compound?
**A.** Its Inhibition rate is 0%.

**Q.** And the Inhibition rate ([5]; TcIL3000, 25 μg/ml)?
**A.** The Inhibition rate was 82.07 ± 6.4%.

**Q.** What about the IC50 ([5]; TcIL3000, three days) of the same compound?
**A.** Its IC50 is 22.53 ± 2.3 µg/mL (≈ 36.8 µM).

**Q.** And the “antitrypanosomal activity” value (six trypanosome species)?
**A.** The value was “broad-spectrum and strong inhibition of trypanosomal growth”.

**Q.** And the “trypanocidal activity (words)” value (six trypanosome species)?
**A.** The value was “substantial trypanocidal activity”.

**Q.** And the “trypanocidal activity (words)” value (six trypanosome species; listed as neohesperidin dihydrochalcone)?
**A.** The value was “suppressed all the test strains”.

**Q.** And the “inhibition rate, range over the species” value (six trypanosome species; low concentration of 0.25 μg/ml)?
**A.** The value was 1.09-3.95%.

**Q.** What about the “IC50 range over the six species” value (six trypanosome species; six Trypanosoma species) of the same compound?
**A.** The value was 8.88 to 22.53 µg/mL.

**Q.** With COc1ccc([C@@H]2CC(=O)c3c(O)cc(O[C@@H]4O[C@H](CO)[C@@H](O)[C@H](O)[C@H]4O[C@@H]4O[C@@H](C)[C@H](O)[C@@H](O)[C@H]4O)cc3O2)cc1O [neohesperidin] as the compound, how does the “antiprotozoal activity against Toxoplasmosis” value (Toxoplasma gondii) read?
**A.** Its value is “not as effective as other standard drugs or flavonoids”.

— patent US11806358B1, “Method of treating trypanosomiasis” (KING FAISAL UNIVERSITY, priority 2023, dated 2023)
